Data on 1 compound can be found in patent publication US20070105910A1, “Medicinal composition” (priority 2003, published 2007).

Counter-ions that a name gives are not always drawn.

The data set in a line: Repeated oral administration test for 10 days using rats: blood hemoglobin (Hb). Format: in vivo. The settings on record: SD rats; after 10 days oral administration; pioglitazone hydrochloride 240 mg/kg/day, benfotiamine 100 mg/kg/day where combined. As to the method:
After termination of the administration, the blood was collected from the rats and the hemoglobin (Hb) value was determined. Then, the rats were killed, and their hearts were weighed (relative weight).

Turning to `CCc1ccc(CCOc2ccc(CC3SC(=O)NC3=O)cc2)nc1` (stereo not shown) [Pioglitazone HCl, pioglitazone hydrochloride], the “Blood Hb conc. after administration” value came out at 13.6 g/dL.
